Assay results reported in patent publication US20050119314A1, “Pharmaceutical composition comprising an ACAT inhibitor and an insulin resistance reducing agent” (SANKYO COMPANY, LIMITED, priority 2002, published 2005).

Tested on: apolipoprotein E-deficient mice
Test: Determination of areas of pathological changes appearing in the aorta (atherosclerotic lesions and macrophage area in the aortic valve)
Assay type: in vivo
Details: male apolipoprotein E-deficient mice, compounds mixed with diet (Compound A 0.03 w/w %, Compound B 0.0001 w/w %) for 12 weeks, average ± standard error; for Rate of area occupied with macrophage: anti-MOMA-2 positive area relative to lesion area
Description: Determination of Areas of Pathological Changes Appearing in the Aorta
Male apolipoprotein E-deficient mice of 12 weeks of age were divided into 4 groups (10 mice per a group) as follows: control group, group treated with 5-[4-(6-methoxy-1-methylbenzimidazol-2-yl-methoxy)benzyl]thiazolidine-2,4-dione hydrochloride (mixed with diet at a concentration of 0.0001 w/w %, hereinafter referred to as Compound B), group treated with N-(1-octyl-5-carboxymethyl-4,6-dimethylindolin-7-yl)-2,2-dimethylpropanamide hemisulfate (mixed with diet at a concentration of 0.03 w/w %, hereinafter referred to as Compound A), and co-administration group of Compound B (mixed with diet at a concentration of 0.0001 w/w %) and Compound A (mixed with diet at a concentration of 0.03 w/w %). All mice were treated with compounds mixed with diet except the control group for 12 successive weeks. The mice were autopsied in the 12th week and the area of atherosclerotic lesions in the aortic valve and the ratio of the area occupied by macrophages in the same area (positively stained area with anti-MOMA-2) were determined.
(1) Areas of Atherosclerotic Lesions in the Aorta
The aortic valve was stained with elastic-Masson and the area of atherosclerotic lesions in the aortic valve determined. Less-stained areas indicate greater inhibitory effects of the agents on the atherosclerotic lesions as well as suppressive action of the agents against progressive development of atherosclerotic lesions in the aorta.
(2) Rate of Area Occupied by Macrophages
Macrophages in the aortic valve were detected by staining with anti-MOMA-2. Areas occupied by macrophages in the aortic valve were determined and the ratio of the area occupied by macrophages (positively stained areas with anti-MOMA-2) to the area of atherosclerotic lesions in the aortic valve was calculated.
Macrophages are a factor to make plaques unstable. Thus decreases in macrophage accumulation increase plaque stability and are related to amelioration of the atherosclerotic lesions.
The actual measurement value in Table 1 indicates average ± standard error.

Molecule | Rate of area occupied with macrophage [%] | Area of atherosclerotic lesions (elastic-Masson stain) [μm^2]
COc1ccc2nc(COc3ccc(CC4SC(=O)NC4=O)cc3)n(C)c2c1.Cl (stereo not drawn) [Compound B, 5-[4-(6-methoxy-1-methylbenzimidazol-2-yl-methoxy)benzyl]thiazolidine-2,4-dione hydrochloride] | 23.3 ± 4.1 | 80616 ± 11611
N-(1-octyl-5-carboxymethyl-4,6-dimethylindolin-7-yl)-2,2-dimethylpropanamide hemisulfate [Compound A] | 13.7 ± 2.2 | 
